What was measured:
neurospheres (NSPCs) = assay: Microarray with parametric analysis of gene set enrichment (PAGE) of FK866-treated neurospheres; type: cell-based, mouse
Procedure: For individual genes, raw microarray data were subjected to Z score transformation, and Z ratios were calculated as described previously (Cheadle et al, 2003). Subsequent analysis and Parametric Analysis of Gene Set Enrichment (PAGE) analysis was performed as previously described (Yoshino et al, 2011). The microarray data used in this study has been deposited into the NCBI GEO database (GEO accession number GSE49784).
The inventors investigated how inhibition of Nampt affects neurosphere proliferation. […] To distinguish whether this decrease in cell number was due to an inhibition of proliferation or enhancement of death, the inventors analyzed the protein levels of markers of proliferation, apoptosis, and autophagy. […] Parametric analysis of gene enrichment (PAGE) was conducted based on microarray analyses. See the Methods section. […] Data are presented as mean±s.e.m. *P<0.05. **P<0.01. ***P<0.001.

[1] = Oxygen consumption, energy expenditure, respiratory quotient (Oxymax Lab Animal Monitoring System); type: in vivo, mouse; settings: 100 mg/kg and 300 mg/kg groups, 12 month time point
Procedure: A 12 month-long NMN administration study using wild-type mice under a regular chow-fed condition was conducted. NMN was administered through drinking water, and two doses of NMN, 100 and 300 mg/kg body weight/day, were tested. […] To assess beneficial and possible adverse effects of NMN, a variety of physiological parameters were periodically monitored, including body weight, body temperature, food and water intake, fed and fasted blood glucose levels, fed and fasted plasma lipid panels, and glucose and insulin tolerance, in NMN-administered and control mice. Blood chemistry, blood cell counts, urine strip test, and other physiological tests including physical activity test were also checked.
In this long-term NMN administration study (See Methods; Administration of NMN through Drinking Water and Determination of NMN Stability and Toxicity), the inventors measured oxygen consumption, energy expenditure, and respiratory quotient for control, mice administered 100 mg/kg NMN per day and mice administered 300 mg/kg NMN per day at the 12 month time point by using the Oxymax Lab Animal Monitoring System (Columbus Instruments, Columbus, OH).

[2] = FK866 10 nM 48 hours, downregulated pathway
[3] = FK866 10 nM 48 hours, upregulated pathway

O=C(/C=C/c1cccnc1)NCCCCC1CCN(C(=O)c2ccccc2)CC1 [FK866]
Z Ratio: BASE_EXCISION_REPAIR (neurospheres (NSPCs); [2]): −4.3 | Z Ratio: CELL_CYCLE_CHECKPOINT_GO_0000075 (neurospheres (NSPCs); [2]): −3.92 | Z Ratio: CELL_CYCLE_GO_0007049 (neurospheres (NSPCs); [2]): −4.63 | Z Ratio: CELL_CYCLE_PHASE (neurospheres (NSPCs); [2]): −4.23 | Z Ratio: CELL_CYCLE_PROCESS (neurospheres (NSPCs); [2]): −4.75 | Z Ratio: CHROMOSOMAL_PART (neurospheres (NSPCs); [2]): −3.48 | Z Ratio: CHROMOSOME (neurospheres (NSPCs); [2]): −4.75 | Z Ratio: CONDENSED_CHROMOSOME (neurospheres (NSPCs); [2]): −3.57 | Z Ratio: CONDENSED_NUCLEAR_CHROMOSOME (neurospheres (NSPCs); [2]): −3.36 | Z Ratio: DNA_DEPENDENT_DNA_REPLICATION (neurospheres (NSPCs); [2]): −6.07 | Z Ratio: DNA_INTEGRITY_CHECKPOINT (neurospheres (NSPCs); [2]): −3.2 | Z Ratio: DNA_METABOLIC_PROCESS (neurospheres (NSPCs); [2]): −6.49 | Z Ratio: DNA_RECOMBINATION (neurospheres (NSPCs); [2]): −3.69 | Z Ratio: DNA_REPAIR (neurospheres (NSPCs); [2]): −5.98 | Z Ratio: DNA_REPLICATION (neurospheres (NSPCs); [2]): −6.2 | Z Ratio: DOUBLE_STRANDED_DNA_BINDING (neurospheres (NSPCs); [2]): −3.95 | Z Ratio: HYDROLASE_ACTIVITY_HYDROLYZING_N_GLYCOSYL_COMPOUNDS (neurospheres (NSPCs); [2]): −3.63 | Z Ratio: INTERPHASE (neurospheres (NSPCs); [2]): −3.28 | Z Ratio: INTERPHASE_OF_MITOTIC_CELL_CYCLE (neurospheres (NSPCs); [2]): −3.07 | Z Ratio: INTRACELLULAR_NON_MEMBRANE_BOUND_ORGANELLE (neurospheres (NSPCs); [2]): −3.46 | Z Ratio: INTRACELLULAR_ORGANELLE_PART (neurospheres (NSPCs); [2]): −5.85 | Z Ratio: MACROMOLECULAR_COMPLEX (neurospheres (NSPCs); [2]): −4.14 | Z Ratio: MEMBRANE_ENCLOSED_LUMEN (neurospheres (NSPCs); [2]): −5.04 | Z Ratio: METHYLTRANSFERASE_ACTIVITY (neurospheres (NSPCs); [2]): −3.3 | Z Ratio: MITOTIC_CELL_CYCLE (neurospheres (NSPCs); [2]): −3.48 | Z Ratio: M_PHASE (neurospheres (NSPCs); [2]): −3.67 | Z Ratio: NON_MEMBRANE_BOUND_ORGANELLE (neurospheres (NSPCs); [2]): −3.46 | Z Ratio: NUCLEAR_CHROMOSOME (neurospheres (NSPCs); [2]): −4.11 | Z Ratio: NUCLEAR_LUMEN (neurospheres (NSPCs); [2]): −4.74 | Z Ratio: NUCLEAR_PART (neurospheres (NSPCs); [2]): −7.07 | Z Ratio: NUCLEOBASE_NUCLEOSIDE_AND_NUCLEOTIDE_METABOLIC_PROCESS (neurospheres (NSPCs); [2]): −3.35 | Z Ratio: NUCLEOBASE_NUCLEOSIDE_NUCLEOTIDE_AND_NUCLEIC_ACID (neurospheres (NSPCs); [2]): −5.34 | Z Ratio: NUCLEOLUS (neurospheres (NSPCs); [2]): −3.47 | Z Ratio: NUCLEOPLASM (neurospheres (NSPCs); [2]): −3.62 | Z Ratio: NUCLEOTIDE_METABOLIC_PROCESS (neurospheres (NSPCs); [2]): −3.21 | Z Ratio: NUCLEUS (neurospheres (NSPCs); [2]): −5.95 | Z Ratio: ORGANELLE_LUMEN (neurospheres (NSPCs); [2]): −5.04 | Z Ratio: ORGANELLE_PART (neurospheres (NSPCs); [2]): −5.72 | Z Ratio: PROTEIN_COMPLEX (neurospheres (NSPCs); [2]): −3.08 | Z Ratio: REPLICATION_FORK (neurospheres (NSPCs); [2]): −3.6 | Z Ratio: RESPONSE_TO_DNA_DAMAGE_STIMULUS (neurospheres (NSPCs); [2]): −5.8 | Z Ratio: RESPONSE_TO_ENDOGENOUS_STIMULUS (neurospheres (NSPCs); [2]): −4.18 | Z Ratio: RIBONUCLEOPROTEIN_COMPLEX (neurospheres (NSPCs); [2]): −3.49 | Z Ratio: RNA_BINDING (neurospheres (NSPCs); [2]): −3.44 | Z Ratio: RNA_PROCESSING (neurospheres (NSPCs); [2]): −4.32 | Z Ratio: SINGLE_STRANDED_DNA_BINDING (neurospheres (NSPCs); [2]): −3.17 | Z Ratio: STRUCTURE_SPECIFIC_DNA_BINDING (neurospheres (NSPCs); [2]): −4.08 | Z Ratio: TRANSFERASE_ACTIVITY_TRANSFERRING_ONE_CARBON_GROUPS (neurospheres (NSPCs); [2]): −3.37 | Z Ratio: TRNA_METABOLIC_PROCESS (neurospheres (NSPCs); [2]): −3.76 | Z Ratio: TRNA_PROCESSING (neurospheres (NSPCs); [2]): −3.51 | Z Ratio: ACTIN_FILAMENT_BASED_PROCESS (neurospheres (NSPCs); [3]): 3.18 | Z Ratio: ANATOMICAL_STRUCTURE_DEVELOPMENT (neurospheres (NSPCs); [3]): 4.47 | Z Ratio: ANATOMICAL_STRUCTURE_MORPHOGENESIS (neurospheres (NSPCs); [3]): 3.39 | Z Ratio: AXON_GUIDANCE (neurospheres (NSPCs); [3]): 3.34 | Z Ratio: CELL_DEVELOPMENT (neurospheres (NSPCs); [3]): 3.44 | Z Ratio: CELL_JUNCTION (neurospheres (NSPCs); [3]): 3.29 | Z Ratio: CELL_MATRIX_ADHESION (neurospheres (NSPCs); [3]): 3.18 | Z Ratio: CELL_MATRIX_JUNCTION (neurospheres (NSPCs); [3]): 3.20 | Z Ratio: CELL_SUBSTRATE_ADHERENS_JUNCTION (neurospheres (NSPCs); [3]): 3.17 | Z Ratio: CELL_SURFACE_RECEPTOR_LINKED_SIGNAL_TRANS-DUCTION_GO_000166 (neurospheres (NSPCs); [3]): 3.17 | Z Ratio: CYTOSKELETAL_PROTEIN_BINDING (neurospheres (NSPCs); [3]): 3.36 | Z Ratio: EARLY_ENDOSOME (neurospheres (NSPCs); [3]): 3.37 | Z Ratio: ENZYME_LINKED_RECEPTOR_PROTEIN_SIGNALING_PATHWAY (neurospheres (NSPCs); [3]): 4.05 | Z Ratio: EXTRACELLULAR_REGION (neurospheres (NSPCs); [3]): 4.10 | Z Ratio: EXTRACELLULAR_REGION_PART (neurospheres (NSPCs); [3]): 3.82 | Z Ratio: EXTRACELLULAR_SPACE (neurospheres (NSPCs); [3]): 3.66 | Z Ratio: FOCAL_ADHESION (neurospheres (NSPCs); [3]): 3.44 | Z Ratio: FOCAL_ADHESION_FORMATION (neurospheres (NSPCs); [3]): 3.83 | Z Ratio: GENERATION_OF_NEURONS (neurospheres (NSPCs); [3]): 3.34 | Z Ratio: Growth (neurospheres (NSPCs); [3]): 3.85 | Z Ratio: IDENTICAL_PROTEIN_BINDING (neurospheres (NSPCs); [3]): 3.19 | Z Ratio: INTERMEDIATE_FILAMENT (neurospheres (NSPCs); [3]): 3.61 | Z Ratio: INTERMEDIATE_FILAMENT_CYTOSKELETON (neurospheres (NSPCs); [3]): 3.61 | Z Ratio: LIGAND_DEPENDENT_NUCLEAR_RECEPTOR_ACTIVITY (neurospheres (NSPCs); [3]): 3.26 | Z Ratio: LIPID_HOMEOSTASIS (neurospheres (NSPCs); [3]): 3.28 | Z Ratio: MEMBRANE (neurospheres (NSPCs); [3]): 3.55 | Z Ratio: MESODERM_DEVELOPMENT (neurospheres (NSPCs); [3]): 3.45 | Z Ratio: MULTICELLULAR_ORGANISMAL_DEVELOPMENT (neurospheres (NSPCs); [3]): 4.64 | Z Ratio: NEGATIVE_REGULATION_OF_GROWTH (neurospheres (NSPCs); [3]): 3.84 | Z Ratio: NERVOUS_SYSTEM_DEVELOPMENT (neurospheres (NSPCs); [3]): 3.39 | Z Ratio: NEUROGENESIS (neurospheres (NSPCs); [3]): 3.21 | Z Ratio: NEURON_PROJECTION (neurospheres (NSPCs); [3]): 3.62 | Z Ratio: OLIGOSACCHARIDE_METABOLIC_PROCESS (neurospheres (NSPCs); [3]): 3.82 | Z Ratio: ORGAN_DEVELOPMENT (neurospheres (NSPCs); [3]): 4.28 | Z Ratio: PDZ_DOMAIN_BINDING (neurospheres (NSPCs); [3]): 3.26 | Z Ratio: PHOSPHOINOSITIDE_BINDING (neurospheres (NSPCs); [3]): 4.49 | Z Ratio: PLASMA_MEMBRANE (neurospheres (NSPCs); [3]): 3.46 | Z Ratio: POSITIVE_REGULATION_OF_SECRETION (neurospheres (NSPCs); [3]): 3.51 | Z Ratio: RECEPTOR_BINDING (neurospheres (NSPCs); [3]): 4.25 | Z Ratio: REGULATION_OF_CELL_GROWTH (neurospheres (NSPCs); [3]): 3.49 | Z Ratio: REGULATION_OF_GROWTH (neurospheres (NSPCs); [3]): 3.48 | Z Ratio: REGULATION_OF_SIGNAL_TRANSDUCTION (neurospheres (NSPCs); [3]): 3.77 | Z Ratio: SENSORY_PERCEPTION (neurospheres (NSPCs); [3]): 3.57 | Z Ratio: SIALYLTRANSFERASE_ACTIVITY (neurospheres (NSPCs); [3]): 1.61 | Z Ratio: SIGNAL_TRANSDUCTION (neurospheres (NSPCs); [3]): 3.47 | Z Ratio: SYSTEM_DEVELOPMENT (neurospheres (NSPCs); [3]): 4.69 | Z Ratio: SYSTEM_PROCESS (neurospheres (NSPCs); [3]): 3.74 | Z Ratio: TASTE_RECEPTOR_ACTIVITY (neurospheres (NSPCs); [3]): 3.36 | Z Ratio: TRANSMEMBRANE_RECEPTOR_PROTEIN_TYROSINE_KINASE_SIGNALING_PATH (neurospheres (NSPCs); [3]): 3.18 | Z Ratio: VACUOLE (neurospheres (NSPCs); [3]): 3.19 | number of the top 50 downregulated pathways related to the cell cycle (neurospheres (NSPCs); FK866-treated neurospheres): 13 | top 50 upregulated pathways involved in cell death (neurospheres (NSPCs); FK866-treated neurospheres): none

NC(=O)c1ccc[n+]([C@@H]2O[C@H](COP(=O)([O-])O)[C@@H](O)[C@H]2O)c1 [NMN, nicotinamide mononucleotide]
oxygen consumption [1]: significantly increased | respiratory quotient [1]: significantly decreased | energy expenditure ([1]; through 24 hours): significant increases

Reference: patent US11793824B2, “Administration of nicotinamide mononucleotide in the treatment of disease” (Washington University, priority 2013, dated 2023)
